Patent publication US20260272944A1, “PYRIDO[3,4-D]PYRIMIDINONE AND PYRIMDLLNE ARYL HYDROCARBON RECEPTOR ANTAGONISTS AND USES THEREOF” (ALLIANTHERA (SUZHOU) BIOPHARMACEUTICAL CO., LTD., priority 2023, published 2026)

Target: T1, Human Aryl Hydrocarbon Receptor (AhR) (Homo sapiens, UniProt P35869)
T1 construct: purchased INDIGO Bioscience IB06001-32; host or cells: AhR Reporter Cell (the kit's proprietary reporter cells)
T1 sequence (P35869 11-848): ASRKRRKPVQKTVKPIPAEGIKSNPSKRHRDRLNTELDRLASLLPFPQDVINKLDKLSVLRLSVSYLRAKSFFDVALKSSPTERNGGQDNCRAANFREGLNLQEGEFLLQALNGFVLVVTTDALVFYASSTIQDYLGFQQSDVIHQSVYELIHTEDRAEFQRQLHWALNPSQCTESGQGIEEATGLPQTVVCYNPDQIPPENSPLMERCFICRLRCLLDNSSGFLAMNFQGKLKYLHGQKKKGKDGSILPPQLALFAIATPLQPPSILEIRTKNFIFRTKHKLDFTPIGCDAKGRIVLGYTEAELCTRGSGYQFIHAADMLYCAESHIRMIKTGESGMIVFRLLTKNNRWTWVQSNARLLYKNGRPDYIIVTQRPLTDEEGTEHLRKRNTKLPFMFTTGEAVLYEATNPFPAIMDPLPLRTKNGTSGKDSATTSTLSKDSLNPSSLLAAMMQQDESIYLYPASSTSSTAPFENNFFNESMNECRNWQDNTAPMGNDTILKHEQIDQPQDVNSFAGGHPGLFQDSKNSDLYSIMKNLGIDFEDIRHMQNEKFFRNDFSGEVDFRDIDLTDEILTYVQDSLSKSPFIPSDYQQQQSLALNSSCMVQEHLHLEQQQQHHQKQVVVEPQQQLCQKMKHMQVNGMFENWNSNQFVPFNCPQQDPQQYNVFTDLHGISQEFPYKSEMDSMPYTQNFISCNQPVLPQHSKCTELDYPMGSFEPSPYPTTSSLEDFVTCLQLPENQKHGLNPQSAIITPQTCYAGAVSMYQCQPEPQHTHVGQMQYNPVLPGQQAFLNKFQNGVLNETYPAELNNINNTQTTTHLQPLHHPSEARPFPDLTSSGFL
Test: AhR reporter assay (Human Aryl Hydrocarbon Receptor (AhR) Reporter Assay System, INDIGO Bioscience)
Type: cell-based
Settings: AHR inhibition at 10 nM test compound; AhR Reporter Cells activated with 200 μM kynurenic acid, 24 hours; firefly luciferase; normalized by positive and negative controls
Protocol: The AhR reporter assay was performed following the protocol of the Human Aryl Hydrocarbon Receptor (AhR) Reporter Assay System (INDIGO Bioscience, #IB06001-32). AhR Reporter Cell was thawed and pre-incubated in Cell Recovery Medium (CRM) for 6 hours. The media was then removed and the cells were incubated with Compound Screening Medium (CSM) supplemented with 200 μM kynurenic acid for 24 hours in the absence (negative control) or presence of 10 nM test compounds. For positive inhibition control, cells activated with 200 μM kynurenic acid were incubated in the presence of literature AHR antagonists; alternatively un-activated cells were used as positive inhibition control. Following 24 hours incubation, the media was removed and Luciferase Detection Reagent (LDR) added. The firefly luciferase activity was quantified using a plate reader. Results were normalized by positive and negative controls.
The results of AHR inhibition at 10 nM for compounds as disclosed herein is reported in the below table.

Structure (SMILES)	inhibition at 0.01 µM [%]
C[C@@H](CO)n1cnc2c(-c3cnn(C)c3)nc(-c3ccc(C4=CCOCC4)nc3)cc2c1=O [Compound 9]	29
C[C@@H](CO)n1cnc2c(-c3cnn(C)c3)nc(-c3ccc(C(=O)N4CCOCC4)cc3)cc2c1=O [Compound 21]	-0.3
Cc1cc(N2CCOCC2)ccc1-c1cc2c(=O)n([C@@H](C)CO)cnc2c(-c2cnn(C)c2)n1 [Compound 54]	1
Cc1nn(C)c2cc(-c3cc4c(=O)n([C@@H](C)CO)cnc4c(-c4cnn(C)c4)n3)ccc12 [Compound 10]	28
C[C@@H](CO)n1cnc2c(-c3cnn(C)c3)nc(-c3ccc(NC(=O)CN4CCOCC4)nc3)cc2c1=O [Compound 39]	-4
C[C@@H](CO)n1cnc2c(-c3cnn(C)c3)nc(-c3ccc(C(=O)N4CCC(N)C4)cc3)cc2c1=O (stereo partly shown) [Compound 34]	6
CC1COCCN1c1ccc(-c2cc3c(=O)n([C@@H](C)CO)cnc3c(-c3cnn(C)c3)n2)cn1 (stereo partly shown) [Compound 27]	45
C[C@@H](CO)n1cnc2c(-c3cnn(C)c3)nc(-c3ccc(N4CCN(S(C)(=O)=O)CC4)cc3)cc2c1=O [Compound 31]	24
C[C@@H](CO)n1cnc2c(-c3cnn(C)c3)nc(/C=C/c3ccc(F)cc3)cc2c1=O [Compound 20]	70
C[C@@H](CO)n1cnc2c(-c3cnn(C)c3)nc(-c3ccc(C(=O)N4CCCNCC4)cc3)cc2c1=O [Compound 28]	-5
C[C@@H](CO)n1cnc2c(-c3cnn(C)c3)nc(-c3ccc(C(=O)N4CCC(O)C4)cc3)cc2c1=O (stereo partly shown) [Compound 29]	8
C[C@@H](CO)n1cnc2c(-c3cnn(C)c3)nc(-c3ccc(-c4ccc(F)cc4)nc3)cc2c1=O [Compound 6]	96
C[C@@H](CO)n1cnc2c(-c3cnn(C)c3)nc(-c3ccc(N4CC5CCC(C4)O5)cc3)cc2c1=O [Compound 4]	53
C[C@@H](CO)n1cnc2c(-c3cnn(C)c3)nc(/C=C/c3ccccc3)cc2c1=O [Compound 2]	51
C[C@@H](CO)n1cnc2c(-c3cnn(C)c3)nc(-c3ccc(-c4ccccc4F)nc3)cc2c1=O [Compound 1]	56
C[C@@H](CO)NC(=O)c1cc(N2CC3CCC(C2)N3c2ccc(F)cc2)nc(-c2cnn(C)c2)n1 [Compound 74]	13
C[C@@H](CO)n1cnc2c(-c3cnn(C)c3)nc(-c3ccc(C(=O)N4CCC(O)CC4)cc3)cc2c1=O [Compound 35]	5
C[C@@H](CO)n1cnc2c(-c3cnn(C)c3)nc(-c3ccc(C4CCOCC4)cc3)cc2c1=O [Compound 5]	40
C[C@@H](CO)n1cnc2c(-c3cnn(C)c3)nc(-c3ccc(-c4cncc(F)c4)nc3)cc2c1=O [Compound 41]	39
C[C@@H](CO)n1cnc2c(-c3cnn(C)c3)nc(-c3ccc(NC(=O)CN4CCOCC4)cc3)cc2c1=O [Compound 42]	16
C[C@@H](CO)n1cnc2c(-c3cnn(C)c3)nc(N3CC=C(c4ccc(F)cc4)CC3)cc2c1=O [Compound 16]	82
C[C@@H](CO)n1cnc2c(-c3cnn(C)c3)nc(-c3ccc(C(=O)N4CCC(N)CC4)cc3)cc2c1=O [Compound 30]	-5
C[C@@H](CO)n1cnc2c(-c3cnn(C)c3)nc(N3Cc4ccccc4C3)cc2c1=O [Compound 15]	99
C[C@@H](CO)n1cnc2c(-c3cnn(C)c3)nc(N3CC4CCC(C3)N4c3ccc(F)cc3)cc2c1=O [Compound 17]	35
C[C@@H](CO)n1cnc2c(-c3cnn(C)c3)nc(-c3ccc(C4CCOCC4)nc3)cc2c1=O [Compound 11]	3
C[C@@H](CO)n1cnc2c(-c3cnn(C)c3)nc(-c3ccc(N4CCOCC4)cc3)cc2c1=O [Compound 3]	66

Second part, the molecule after the results:

inhibition at 0.01 µM [%]	Structure (SMILES)
4	C[C@@H](CO)n1cnc2c(-c3cnn(C)c3)nc(N3CCN(c4ncccn4)CC3)cc2c1=O [Compound 121]
62	C[C@@H](CO)NC(=O)c1cc(-c2ccc(-c3ccc(F)cc3)nc2)nc(-c2cnn(C)c2)n1 [Compound 61]
7	C[C@@H](CO)n1cnc2c(-n3cncc3C3CC3)nc(-c3cncc(F)c3)cc2c1=O [Compound 129]
24	C[C@@H](CO)NC(=O)c1cc(N2CCN(C(=O)c3ccc(F)cc3)CC2)nc(-c2cnn(C)c2)n1 [Compound 75]
21	C[C@@H](CO)NC(=O)c1cc(N2Cc3cccc(F)c3C2)nc(-c2cnn(C)c2)n1 [Compound 88]
5	C[C@@H](CO)NC(=O)c1cc(-c2ccc(NC(=O)CN3CCOCC3)cc2)nc(-c2cnn(C)c2)n1 [Compound 98]
21	C[C@@H](CO)NC(=O)c1cc(N2CCN(c3ccc(F)cc3)CC2)nc(-c2cnn(C)c2)n1 [Compound 60]
46	C[C@@H](CO)NC(=O)c1cc(N2Cc3cccnc3C2)nc(-c2cnn(C)c2)n1 [Compound 117]
1	C[C@@H](CO)NC(=O)c1cc(-c2ccc(N3CCOCC3)nc2)nc(-c2cnn(C)c2)n1 [Compound 90]
58	C[C@@H](CO)NC(=O)c1cc(N2Cc3ccccc3C2)nc(-c2cnn(C)c2)n1 [Compound 63]
69	C[C@@H](CO)NC(=O)c1cc(N2CCN(c3ccc(F)cc3)CC2)nc(-c2cccc(F)c2)n1 [Compound 66]
5	C[C@H](NC(=O)c1cc(N2Cc3ccccc3C2)nc(-c2cnn(C)c2)n1)C(=O)O [Compound 126]
2	C[C@@H](CO)n1cnc2c(-c3cnn(C)c3)nc(-c3ccc(-c4cnc(N)nc4)nc3)cc2c1=O [Compound 119]
23	C[C@H](CO)NC(=O)c1cc(N2Cc3ccccc3C2)nc(-c2cnn(C)c2)n1 [Compound 125]
-3	C[C@@H](CO)NC(=O)c1cc(-c2ccc(C(=O)N3CCC(N)C3)cc2)nc(-c2cnn(C)c2)n1 (stereo partly shown) [Compound 105]
4	C[C@@H](CO)NC(=O)c1cc(N2CCN(c3ccc(F)cc3)C[C@@H]2C)nc(-c2cnn(C)c2)n1 [Compound 77]
10	C[C@@H](CO)NC(=O)c1cc(-c2ccc(-c3ccc(=O)n(C)c3)cc2)nc(-c2cnn(C)c2)n1 [Compound 112]
-10	C[C@@H](CO)n1cnc2c(-c3cnn(C)c3)nc(-c3ccc(C(=O)N4CCN(S(C)(=O)=O)CC4)cc3)cc2c1=O [Compound 120]
7	C[C@@H](CO)NC(=O)c1cc(N2CCN(c3ccc(F)cc3)CC2)nc(-c2cnn(C(F)(F)F)c2)n1 [Compound 65]
99	C[C@@H](CO)NC(=O)c1cc(N2Cc3ccc(F)cc3C2)nc(-c2cnn(C)c2)n1 [Compound 93]
24	C[C@@H](CO)NC(=O)c1cc(-c2ccc(-c3ccccc3F)nc2)nc(-c2cnn(C)c2)n1 [Compound 59]
1	C[C@@H]1CN(c2ccc(F)cc2)CCN1c1cc(C(=O)N[C@@H](C)CO)nc(-c2cnn(C)c2)n1 [Compound 76]
52	C[C@@H](CNS(=O)(=O)C1CC1)NC(=O)c1cc(N2Cc3ccccc3C2)nc(-c2cnn(C)c2)n1 [Compound 127]
10	Cc1cc(-c2cc(C(=O)N[C@@H](C)CO)nc(-c3cnn(C)c3)n2)ccc1N1CCOCC1 [Compound 96]
29	C[C@@H](CO)NC(=O)c1cc(-c2ccc(N3CCOCC3)cc2)nc(-c2cnn(C)c2)n1 [Compound 62]
91	C[C@@H](CO)n1cnc2c(-c3cnn(C)c3)nc(N3CCN(c4ccccc4)CC3)cc2c1=O [Compound 123]
60	C[C@@H](CO)NC(=O)c1cc(-c2ccc(-c3ccc(F)nc3)nc2)nc(-c2cnn(C)c2)n1 [Compound 69]
33	Cc1nn(C)c2cc(-c3cc(C(=O)N[C@@H](C)CO)nc(-c4cnn(C)c4)n3)ccc12 [Compound 67]
37	C[C@@H](CO)NC(=O)c1cc(-c2ccc(C3CCOCC3)cc2)nc(-c2cnn(C)c2)n1 [Compound 71]
